Data taken from US12642779B1, “Albuterol aerosol suspension formulation for oral inhalation with high amount of green propellant hydrofluoroolefin (HFO) and free of co-solvent” (Amphastar Pharmaceuticals, Inc., priority 2025, dated 2026).
Like-named read-outs stand apart in the source and are kept apart here.

Legend:
[1] = cited from earlier work
[2] = Surfactant solubility in HFO-1234ze (E) propellant; type: physicochemical

Compound | Liquid Density at 20° C. [1] [g/mL] | Vapor Pressure at 20° C. [1] [psi] | Viscosity at 20° C. [1] [cP] | Solubility of surfactant in HFO-1234ze (E) [2] | other results
FCC(F)(F)F [HFA-134a, 1,1,1,2-Tetrafluoroethane] | 1.21 | 83.0 | 0.20 |  | Water solubility ([1]; at 25° C.): 1100 at 25 °C ppm
FC(C(F)(F)F)C(F)(F)F [HFA-227, 1,1,1,2,3,3,3-Heptafluoropropane] | 1.41 | 56.6 | 0.26 |  | Water solubility ([1]; at 25° C.): 610 at 25 °C ppm
F/C=C/C(F)(F)F [HFO-1234ze(E), Trans-1,3,3,3-Tetrafluoropropene] | 1.19 | 46.4 | 0.19 |  | Water solubility ([1]; at 20° C.): 225 at 20 °C ppm
polyethylene glycol 1000 [PEG 1000] |  |  |  | exhibited certain solubility in HFO-1234ze (E) and showed homogenous phase | 
polyoxyethylene (20) sorbitan monolaurate [polysorbate 20] |  |  |  |  | Solubility of surfactant in HFO-1234ze (E) ([2]; in HFO-1234ze (E) propellant): exhibited certain solubility in HFO-1234ze (E) and showed homogenous phase
polyoxyethylene (20) sorbitan monooleate [polysorbate 80] |  |  |  | exhibited certain solubility in HFO-1234ze (E) and showed homogenous phase | 
polyvinylpyrrolidone K25 [PVP K25] |  |  |  | exhibited certain solubility in HFO-1234ze (E) and showed homogenous phase | 
sorbitan trioleate [span 85] |  |  |  | exhibited certain solubility in HFO-1234ze (E) and showed homogenous phase | 
